Results taken from patent US12319664B2, “Herbicidally active 3-phenylisoxazoline-5-carboxamides of cyclopentenylcarboxylic acid derivatives” (Bayer Aktiengesellschaft, priority 2018, dated 2025).

Key:
ALOMY = experiment: Post-emergence herbicidal action against ALOMY; type: in vivo, Alopecurus myosuroides; conditions: application rate 80 g/ha, rated visually after about 3 weeks
Protocol: (§1) [table] 2. Post-emergence herbicidal action against harmful plants and crop plant compatibility Seeds of monocotyledonous and dicotyledonous weeds and crop plants are placed in sandy loam in plastic or wood-fibre pots, covered with soil and cultivated in a greenhouse under controlled growth conditions. 2 to 3 weeks after sowing, the test plants are treated at the one-leaf stage. The compounds of the invention, formulated in the form of wettable powders (WP) or as emulsion concentrates (EC), are then sprayed onto the green parts of the plants as aqueous suspension or emulsion with addition of 0.5% additive at a water application rate of 600 l/ha (converted). After the test plants have been kept in the greenhouse under optimum growth conditions for about 3 weeks, the activity of the preparations is rated visually in comparison to untreated controls. For example, 100% activity=the plants have died, 0% activity=like control plants.

AVEFA = experiment: Post-emergence herbicidal action against AVEFA; type: in vivo, Avena fatua; conditions: application rate 80 g/ha, rated visually after about 3 weeks
Protocol: as §1

ECHCG = experiment: Post-emergence herbicidal action against ECHCG; type: in vivo, Echinochloa crus-galli; conditions: application rate 80 g/ha, rated visually after about 3 weeks
Protocol: as §1

LOLRI = experiment: Post-emergence herbicidal action against LOLRI; type: in vivo, Lolium rigidum; conditions: application rate 80 g/ha, rated visually after about 3 weeks
Protocol: as §1

SETVI = experiment: Post-emergence herbicidal action against SETVI; type: in vivo, Setaria viridis; conditions: application rate 80 g/ha, rated visually after about 3 weeks
Protocol: as §1

ABUTH = experiment: Post-emergence herbicidal action against ABUTH; type: in vivo, Abutilon theophrasti; conditions: application rate 80 g/ha, rated visually about 3 weeks after treatment
Protocol: as §1

AMARE = experiment: Post-emergence herbicidal action against AMARE; type: in vivo, Amaranthus retroflexus; conditions: application rate 80 g/ha, rated visually about 3 weeks after treatment
Protocol: as §1

POLCO = experiment: Post-emergence herbicidal action against POLCO; type: in vivo, Polygonum convolvulus; conditions: application rate 80 g/ha, rated visually about 3 weeks after treatment
Protocol: as §1

STEME = experiment: Post-emergence herbicidal action against STEME; type: in vivo, Stellaria media; conditions: application rate 80 g/ha, rated visually about 3 weeks after treatment
Protocol: as §1

VIOTR = experiment: Post-emergence herbicidal action against VIOTR; type: in vivo, Viola tricolor; conditions: application rate 80 g/ha, rated visually about 3 weeks after treatment
Protocol: as §1

VERPE = experiment: Post-emergence herbicidal action against VERPE; type: in vivo, Veronica persica; conditions: application rate 80 g/ha
Protocol: as §1

HORMU = experiment: Post-emergence herbicidal action against HORMU; type: in vivo, Hordeum murinum; conditions: application rate 80 g/ha
Protocol: as §1

PHBPU = experiment: Post-emergence herbicidal action against PHBPU; type: in vivo, Pharbitis purpurea; conditions: application rate 80 g/ha, rated visually about 3 weeks after treatment
Protocol: as §1

SMILES	Herbicidal action against [%] ALOMY (ALOMY) [%]	Herbicidal action against [%] AVEFA (AVEFA) [%]	Herbicidal action against [%] ECHCG (ECHCG) [%]	Herbicidal action against [%] LOLRI (LOLRI) [%]	Herbicidal action against [%] SETVI (SETVI) [%]	Herbicidal action against [%] ABUTH (ABUTH) [%]	Herbicidal action against [%] AMARE (AMARE) [%]	Herbicidal action against [%] POLCO (POLCO) [%]	Herbicidal action against [%] STEME (STEME) [%]	Herbicidal action against [%] VIOTR (VIOTR) [%]	Herbicidal action against [%] VERPE (VERPE) [%]	Herbicidal action against [%] HORMU (HORMU) [%]	Herbicidal action against [%] PHBPU (PHBPU) [%]
O=C(C1C=CC(NC(=O)C2(C(F)(F)F)CC(c3cc(F)cc(F)c3)=NO2)C1)N1CCCCO1 (mixture of isomers) [II-31]	90	100	90	90	80	90	80	90	90	90	90	80	
CCCS(=O)(=O)NC(=O)C1C=CC(NC(=O)C2(C(F)(F)F)CC(c3cc(F)cc(F)c3)=NO2)C1 (mixture of isomers) [II-33]		100	80	90	80	80	90	90	80	90	80	90	
C=CC1(C(=O)NC2C=CC(C(=O)O)C2)CC(c2cc(F)cc(F)c2)=NO1 (stereo not shown) [Example I-014]	90	90	90	90	80		90	80	90	90	90	80	
CCOC(=O)C1C=CC(NC(=O)C2(C)CC(c3cc(F)cc(C#N)c3)=NO2)C1 (mixture of isomers) [Example I-073]	90	100	100	100	80	80	80	90	90		80	90	80
N#Cc1cc(F)cc(C2=NOC(C(=O)NC3C=CC(C(=O)OCCCl)C3)(C(F)(F)F)C2)c1 (mixture of isomers) [Example I-089]	100	100	90	100	80	90	90	90	90	90	90	100	
CCOC(=O)[C@@H]1C=C[C@H](NC(=O)C2(C(F)(F)F)CC(c3ccccc3)=NO2)C1 (stereo partly shown) [Example I-021]	90	100	80	90	90	80	90	90	80		80	90	80
Cc1cc(C)cc(C2=NOC(C(=O)NC3C=CC(C(=O)OCC(F)(F)F)C3)(C(F)(F)F)C2)c1 (mixture of isomers) [Example I-057]	90		80	90				80	80	80	80	80	
COCCOC(=O)C1C=CC(NC(=O)C2(C(F)(F)F)CC(c3cc(F)cc(C#N)c3)=NO2)C1 (stereo not shown) [Example I-099]	90	90	80	100	90		80	80	80	80	80	80	
C=CC1(C(=O)N[C@H]2CC=C(C(=O)OC(C)C)C2)CC(c2cc(F)cc(F)c2)=NO1 (stereo partly shown) [III-13]	90	90	90	100	80	80	90	80	90		80	90	90
COC(=O)C(NC(=O)C1C=CC(NC(=O)C2(C(F)(F)F)CC(c3cc(F)cc(F)c3)=NO2)C1)C(C)C (mixture of isomers) [II-37]	80	100		100	80	80	90	100	90	90	90	90	
Cc1cc(Cl)cc(C2=NOC(C(=O)N[C@H]3C=C[C@@H](C(=O)OCC(F)(F)F)C3)(C(F)(F)F)C2)c1 (stereo partly shown) [Example I-029]	90	80		90	80		90	80		80	90	80	
CC1(C(=O)NC2C=CC(C(=O)O)C2)CC(c2cccc(C#N)c2)=NO1 (mixture of isomers) [Example I-070]	90	100	90	80	90	80	90	90	80		80	90	80
O=C(O)C1=C[C@@H](NC(=O)[C@@]2(C(F)(F)F)CC(c3cc(F)cc(F)c3)=NO2)CC1 [Example V-04]	100		80	90	80	80	80		90	80	80	90	
CC(C)(NC(=O)C1C=CC(NC(=O)C2(C(F)(F)F)CC(c3cc(F)cc(F)c3)=NO2)C1)C(F)(F)F (stereo not shown) [II-38]							90			80			
C=CC1(C(=O)NC2C=CC(C(=O)NC(C(=O)OC)C(C)C)C2)CC(c2cc(F)cc(F)c2)=NO1 (single isomer, unassigned) [II-26]	100	90	80	100	80	80	90	80	90		80	100	80
